In patent publication US20220402901A1 (Bial - R&D Investments, S.A., priority 2019, published 2022) one finds solubility and IC50 data, which are given here for 24 compounds.

A short description of data set [1]: Compound solubility in water. Format: physicochemical. The note with it: read-out: Solubility in H2O.
Data set [2] concerns the target T1, Human acid ceramidase (hACR) (Homo sapiens, UniProt Q13510).
T1 construct: expressed in transfected cells; lysates of cells overexpressing acid ceramidase
T1 sequence (Q13510 22-395): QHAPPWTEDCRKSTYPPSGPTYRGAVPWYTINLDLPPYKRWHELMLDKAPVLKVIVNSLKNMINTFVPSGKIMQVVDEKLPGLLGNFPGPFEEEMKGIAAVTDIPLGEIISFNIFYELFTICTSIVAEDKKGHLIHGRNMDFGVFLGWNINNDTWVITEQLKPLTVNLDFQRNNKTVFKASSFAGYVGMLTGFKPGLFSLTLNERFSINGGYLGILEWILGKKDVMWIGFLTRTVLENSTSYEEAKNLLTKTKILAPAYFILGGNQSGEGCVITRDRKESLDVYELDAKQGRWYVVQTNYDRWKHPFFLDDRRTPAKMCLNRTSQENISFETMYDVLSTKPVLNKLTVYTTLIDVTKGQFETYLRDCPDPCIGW
Put plainly: Acid ceramidase biochemical fluorescent assay (cell lysates overexpressing acid ceramidase, substrate Rbm14-12). The note with it: 10 μg lysate protein, 1 hr preincubation at RT, pH 4.5, Rbm14-12 6.3 μM. On the procedure:
The ability of exemplary compounds to inhibit acid ceramidase was measured.
Cell lysates overexpressing acid ceramidase were used as the enzyme source for compound potency determination in a biochemical fluorescent assay. Briefly, compounds were preincubated with 10 μg protein of cell lysates in a dose-response manner for 1 hr at RT in the assay buffer containing 25 mM NaAC and 100 mM NaCl, pH 4.5. The reaction was initiated by the addition of substrate Rbm14-12 at a final concentration of 6.3 μM. The reaction was run at RT for 1 hr before it was stopped by the addition of the stopping buffer containing 20% methanol (v/v), 1 mg/ml NaIO4, 0.1 M glycine, pH 10.6. The samples were incubated with the stopping buffer at RT for 1 hr to allow the fluorescent product to be formed. Finally the plate was read with SpectraMax i3 plate reader (Molecular Devices) at ex360 nm and em446 nm. Data were collected and used to determine the IC50 values of compounds by curve fitting to the four-parameter inhibition equation.
The symbol “A” indicates inhibition of less than 0.2 μM; the symbol “B” indicates inhibition in the range of 0.2 μM up to 1 μM; and the symbol “C” indicates inhibition of greater than 1 μM.

Converted amounts (≈) assume the structure as drawn.

Take `CCCCCNC(=O)N1CCC(c2ccc3c(c2)oc(=O)n3C)CC1(C)C` (stereo not drawn) [Example 28, 2,2-Dimethyl-4-(3-methyl-2-oxo-1,3-benzoxazol-6-yl)-N-pentylpiperidine-1-carboxamide]: the solubility – broadly, the concentration that dissolves in the medium under given conditions – in data set [1] amounted to 1.7 µM (≈ 0.635 µg/mL). In data set [2], the IC50 (in general, the concentration needed to halve the response being measured) is under 200 nM.
`CCCCCNC(=O)N1C(c2ccc3c(c2)oc(=O)n3C)COCC1(C)C` (stereo not drawn) [Example 43]: the solubility in data set [1] came out at 69.1 µM (≈ 25.9 µg/mL). Besides, the IC50 in data set [2] is under 200 nM.
On the same counts, the results for `C[C@@H]1CN(c2ccc3c(c2)oc(=O)n3C)CCN1C(=O)NCCCCc1ccccc1` [Example 48, (2R)-2-Methyl-4-(3-methyl-2-oxo-1,3-benzoxazol-6-yl)-N-(4-phenylbutyl)piperazine-1-carboxamide] are 4.3 µM (≈ 1.82 µg/mL) and 200 to 1000 nM.
Turning to `Cn1c(=O)oc2ccc(C3CCN(C(=O)NCCCCc4ccccc4)CC3)cc21` [Example 9, 4-(3-Methyl-2-oxo-1,3-benzoxazol-5-yl)-N-(4-phenylbutyl)piperidine-1-carboxamide], the solubility in data set [1] stood at 15 µM (≈ 6.11 µg/mL). Moreover, the half-maximal inhibitory concentration (IC50) in data set [2] is over 1000 nM.
With `Cn1c(=O)oc2cc(C3CCN(C(=O)NCCCCc4ccccc4)C(C)(C)C3)ccc21` (stereo not drawn) [Example 24, 2,2-Dimethyl-4-(3-methyl-2-oxo-1,3-benzoxazol-6-yl)-N-(4-phenylbutyl)piperidine-1-carboxamide], the solubility in data set [1] was determined as 1.3 µM (≈ 0.566 µg/mL). The same compound gave an IC50 in data set [2] of under 200 nM.
With `Cn1c(=O)oc2cc(C3CCN(C(=O)NCCCc4ccccc4)C(C)(C)C3)ccc21` (stereo not drawn) [Example 26, 2,2-Dimethyl-4-(3-methyl-2-oxo-1,3-benzoxazol-6-yl)-N-(3-phenylpropyl)piperidine-1-carboxamide], the solubility in data set [1] worked out at 5.8 µM (≈ 2.44 µg/mL). This compound also came in with an IC50 in data set [2] of under 200 nM.
For `Cn1c(=O)oc2cc(N3CCN(C(=O)NCCCCc4ccccc4)C(C)(C)C3=O)ccc21` [Example 64, 2,2-Dimethyl-4-(3-methyl-2-oxo-1,3-benzoxazol-6-yl)-3-oxo-N-(4-phenylbutyl)piperazine-1-carboxamide] the same measures were 6.8 µM (≈ 3.06 µg/mL) and under 200 nM.
Take `CC(C)CNC(=O)N1CCC(c2ccc3c(c2)oc(=O)n3C)C[C@@H]1C` (stereo partly drawn) [Example 22, N-iso-Butyl (2S)-methyl-4-(3-methyl-2-oxo-1,3-benzoxazol-6-yl)piperidine-1-carboxamide]: the solubility in data set [1] worked out at 235 µM (≈ 81.2 µg/mL). In data set [2], this compound had a concentration for half-maximal inhibition (IC50) of 200 to 1000 nM.
Regarding `CC1CC(c2ccc3c(c2)oc(=O)n3C)CCN1C(=O)NCCCCc1ccccc1` (mixture of isomers) [Example 16, 2-methyl-4-(3-methyl-2-oxo-1,3-benzoxazol-6-yl)-N-(4-phenylbutyl)piperidine-1-carboxamide], the solubility in data set [1] is 2.2 µM. Besides, in data set [2], the IC50 was under 200 nM.
On to `C[C@H]1CC(c2ccc3c(c2)oc(=O)n3C)CCN1C(=O)NCCCCc1ccccc1` (mixture of isomers) [Example 20, (2S)-methyl-4-(3-methyl-2-oxo-1,3-benzoxazol-6-yl)-N-(4-phenylbutyl)piperidine-1-carboxamide], for which, in data set [1], the solubility was 10 µM. In data set [2], the IC50 is under 200 nM.
As to `CC1CN(c2ccc3c(c2)oc(=O)n3C)CC(C)N1C(=O)NCCCCc1ccccc1` (stereo not drawn) [Example 59, 2,6-Dimethyl-4-(3-methyl-2-oxo-1,3-benzoxazol-6-yl)-N-(4-phenylbutyl)piperazine-1-carboxamide], the solubility in data set [1] is 0.5 µM (≈ 0.218 µg/mL). The compound also had an IC50 in data set [2] of under 200 nM.
As for `Cn1c(=O)oc2cc(C3CNCCN3C(=O)NCCCCc3ccccc3)ccc21` (stereo not drawn) [Example 39, 2-(3-Methyl-2-oxo-1,3-benzoxazol-6-yl)-N-(4-phenylbutyl)piperazine-1-carboxamide], the solubility in data set [1] turned out to be 241 µM (≈ 98.4 µg/mL). The compound further displayed an IC50 in data set [2] of over 1000 nM.
`Cn1c(=O)oc2cc(C3CCN(C(=O)NCCOCc4ccccc4)C(C)(C)C3)ccc21` (stereo not drawn) [Example 27, N-(2-Benzyloxyethyl)-2,2-dimethyl-4-(3-methyl-2-oxo-1,3-benzoxazol-6-yl)piperidine-1-carboxamide]: the solubility in data set [1] came out at 9.4 µM (≈ 4.11 µg/mL). Further, the IC50 in data set [2] is under 200 nM.
As for `Cn1c(=O)oc2cc(N3CCN(C(=O)NCCC4CC4)C(C)(C)C3)ccc21` [Example 53, N-(2-Cyclopropylethyl)-2,2-dimethyl-4-(3-methyl-2-oxo-1,3-benzoxazol-6-yl)piperazine-1-carboxamide], in data set [1], the solubility came out at 20.5 µM (≈ 7.64 µg/mL). This compound also showed an IC50 in data set [2] of over 1000 nM.
With `Cn1c(=O)oc2cccc(C3CCN(C(=O)NCCCCc4ccccc4)CC3)c21` [Example 10, 4-(3-Methyl-2-oxo-1,3-benzoxazol-4-yl)-N-(4-phenylbutyl)piperidine-1-carboxamide], the solubility in data set [1] worked out at 9 µM (≈ 3.67 µg/mL). Further, the IC50 in data set [2] is over 1000 nM.
On the same counts, the results for `CN(C)CCn1c(=O)oc2cc(N3CCN(C(=O)NCCCCc4ccccc4)CC3)ccc21` [Example 47, 4-[3-[2-(Dimethylamino)ethyl]-2-oxo-1,3-benzoxazol-6-yl]-N-(4-phenylbutyl)piperazine-1-carboxamide] are 250 µM (≈ 116 µg/mL) and over 1000 nM.
On the same counts, the results for `Cn1c(=O)oc2cc(N3CCN(C(=O)NCCCCc4ccccc4)CC3=O)ccc21` [Example 63, 4-(3-Methyl-2-oxo-1,3-benzoxazol-6-yl)-3-oxo-N-(4-phenylbutyl)piperazine-1-carboxamide] are 51.4 µM (≈ 21.7 µg/mL) and over 1000 nM.
On the same counts, the results for `Cn1c(=O)oc2cc(C3CCN(C(=O)NCCC4CC4)C(C)(C)C3)ccc21` (stereo not drawn) [Example 29, N-(2-Cyclopropylethyl)-2,2-dimethyl-4-(3-methyl-2-oxo-1,3-benzoxazol-6-yl)piperidine-1-carboxamide] are 250 µM (≈ 92.9 µg/mL) and 200 to 1000 nM.
Regarding `Cn1c(=O)oc2cc(N3CCN(C(=O)NCCCCC4CC4)C(C)(C)C3)ccc21` [Example 52, N-(4-Cyclopropylbutyl)-2,2-dimethyl-4-(3-methyl-2-oxo-1,3-benzoxazol-6-yl)piperazine-1-carboxamide], the solubility in data set [1] was determined as 0.9 µM (≈ 0.36 µg/mL). In data set [2], this compound had an IC50 of under 200 nM.
Regarding `Cn1c(=O)oc2cc(N3CCN(C(=O)NCCCCc4ccccc4)CC3)ccc21` [Example 46, 4-(3-Methyl-2-oxo-1,3-benzoxazol-6-yl)-N-(4-phenylbutyl)piperazine-1-carboxamide], the solubility in data set [1] was 6 µM (≈ 2.45 µg/mL). Besides, the half-inhibitory concentration (IC50) in data set [2] lay within 200 to 1000 nM.
In the case of `Cn1c(=O)oc2cc(N3CC(C)(C)N(C(=O)NCCCCc4ccccc4)CC3=O)ccc21` [Example 65, 2,2-Dimethyl-4-(3-methyl-2-oxo-1,3-benzoxazol-6-yl)-5-oxo-N-(4-phenylbutyl)piperazine-1-carboxamide], the solubility in data set [1] is 18.9 µM (≈ 8.52 µg/mL). This compound displayed an IC50 in data set [2] of under 200 nM.
On the same counts, the results for `Cn1c(=O)oc2c(C3CCN(C(=O)NCCCCc4ccccc4)CC3)cccc21` [Example 7, 4-(3-Methyl-2-oxo-1,3-benzoxazol-7-yl)-N-(4-phenylbutyl)piperidine-1-carboxamide] are 13 µM (≈ 5.3 µg/mL) and over 1000 nM.
Consider `CN1CCN(C(=O)NCCCCc2ccccc2)C(c2ccc3c(c2)oc(=O)n3C)C1` (stereo not drawn) [Example 40, 4-Methyl-2-(3-methyl-2-oxo-1,3-benzoxazol-6-yl)-N-(4-phenylbutyl)piperazine-1-carboxamide], for which, in data set [1], the solubility worked out at 224 µM (≈ 94.6 µg/mL). Also, in data set [2], the concentration for half-maximal inhibition (IC50) is over 1000 nM.
`Cn1c(=O)oc2cc(C3CCN(C(=O)NCCc4ccccc4)C(C)(C)C3)ccc21` (stereo not drawn) [Example 25, 2,2-Dimethyl-4-(3-methyl-2-oxo-1,3-benzoxazol-6-yl)-N-(2-phenylethyl)piperidine-1-carboxamide]: in data set [1], the solubility worked out at 26 µM (≈ 10.6 µg/mL). The half-inhibitory concentration (IC50) in data set [2] was under 200 nM.
